Reference: patent publication US8692023B2, “Sugar metabolism improving composition, and pharmaceutical preparation containing said composition” (Erina Co., Inc., priority 2010, dated 2014)

Legend:
[1] = system: db/db diabetes model mouse; experiment: Serum TBARS value (anti-oxidizing action) in diabetes model mice; format: in vivo; conditions: groups A and B versus group C
Procedure: (§1) After the termination of the experiment shown in EXAMPLE 4, the blood samples were obtained from the abdominal aorta of the mice from each group under anesthesia, and they were centrifuged with 1,000×g at room temperature to obtain serum samples. After that, the mice of each group were killed by cervical dislocation to put out of the misery; then organs were excised to use the following experiments.
TBARS value, an index for anti-oxidizing action, was determined by using a TBARS Assay Kit (ZeptoMetrix Co., Inc.).

[2] = system: db/db diabetes model mouse; experiment: Fasting blood glucose of diabetes model mice; format: in vivo; conditions: 4 hour fasting, 2 to 4 weeks after administration start, versus no nepodin
Procedure: Effect of nepodin was evaluated by using fasting blood glucose of model mice (db/db mouse) having diabetes II as an index.
Nepodin was suspended in 0.5% carboxymethylcellulose aqueous solution (Wako Pure Chemical Industries, Ltd.). Male mice of 5 week old, BKS. Cg-+Lerp^db/+Lerp^db/J mouse (db/db diabetes model mouse, hereinafter, it is referred to as “diabetes model mouse”) for a test group (nepodin administration group) were purchased from Charles River Laboratories Japan Inc. Prior to the test, they were maintained for 1 week under the condition of 12 h light/12 h dark at a room temperature approximately 25° C., feeding normal diet. It is considered that db/db mouse also becomes a model for a metabolic syndrome model, because it is obese and has higher levels of variety of lipid.
Heterozygous male mice of 5 week old, BKS. Cg-+Dock 7^m/+Lerp^db/J mouse (normal mouse) for a negative control group (without nepodin administration) were purchased from Charles River Japan Inc. Prior to the test, they were maintained as the same condition as those of the test group. […]
Blood samples were obtained from the tail vein of the mice after 4 hour fasting per week. The blood glucose level was measured by using Glucose CII test Wako (Wako Pure Chemical Industries, Ltd.)

[3] = Feed intake and body weight gain of diabetes model mice; format: in vivo, mouse; conditions: for Weight gain / Feed intake: diabetes mice
Procedure: Nepodin was suspended in 0.5% carboxymethylcellulose aqueous solution (Wako Pure Chemical Industries, Ltd.). Male mice of 5 week old, BKS. Cg-+Lerp^db/+Lerp^db/J mouse (db/db diabetes model mouse, hereinafter, it is referred to as “diabetes model mouse”) for a test group (nepodin administration group) were purchased from Charles River Laboratories Japan Inc. Prior to the test, they were maintained for 1 week under the condition of 12 h light/12 h dark at a room temperature approximately 25° C., feeding normal diet. It is considered that db/db mouse also becomes a model for a metabolic syndrome model, because it is obese and has higher levels of variety of lipid. The test group mice were divided into 3 groups: C group (positive control group; n=10) with no nepodin administration; A group (n=6) to which nepodin was administered at the dose of 2 mg/kg/day or 10 mg/kg/day for 5 weeks; and B group (n=6). 0.5% carboxymethylcellulose aqueous solution without nepodin was administered to the negative control group (N group; n=6) and the positive control group (C group) under the same conditions as described above. Feeds and water are freely given to each group.

[4] = system: db/db diabetes model mouse; experiment: HOMA-IR insulin resistance index in diabetes model mice; format: in vivo; conditions: groups A and B (2 and 10 mg/kg/day) versus group C
Procedure: as §1
Serum insulin level of Lewi's insulin-mouse-T (Shibayagi Co., Ltd.) was determined by ELISA (measurement at the wavelengths of 450 nm and 620 nm), according to protocols written in its package insert.
HOMA-IR (Homeostasis model assessment-Insulin Resistance), which is an index of the insulin resistance, was calculated based on data on both blood glucose and serum insulin, by using following equation. HOMA-IR=(blood glucose×insulin level)/405 (1)
HOMA-IR values were obtained from both levels of serum blood glucose and serum insulin of the mice in group N (the normal mice), the administration groups A, B, and C. They were used to investigate for the change of the insulin resistant index.

[5] = system: db/db diabetes model mouse; experiment: Intraperitoneal glucose tolerance test (IPGTT) in diabetes model mice; format: in vivo
Procedure: Effect on glucose tolerance by nepodin administration was measured by using blood glucose level change after the intraperitoneal administration of nepodin to the diabetes model mice.
Intraperitoneal glucose tolerance test (IPGTT) was performed on the sixth week after nepodin administration start. At first, the mice of each group were fasted for 16 hours, and then, glucose was intraperitoneally administrated to each mouse at the dose of 2 g/kg.
Blood samples were obtained from the tail vain of each mouse at the time point of 0 min., 30 min., 60 min., 90 min., 120 min., and 180 min. after the glucose administration. Blood glucose level was determined by using Glucose CII Test Wako (Wako Pure Chemical Industries, Ltd.)

L6 myotube cells = experiment: Glucose intake by L6 myotube cells (decrease of glucose in culture solution); format: cell-based, rat; conditions: nepodin 10 to 40 μM, 4 hours, versus medium without nepodin
Procedure: L6 myoblast cells were suspended at concentration of 12.5×10^4 cells/mL in a D-MEM medium with 5.5 mM of glucose concentration to which 10% v/v fetal bovine serum, 100 μg/mL of streptomycin, and 100 U/mL of penicillin G were added.
The cells were inoculated at the concentration 5×10^4 cells/well (0.4 mL/well) in 24 well multi-plate (NUNC Co., Inc.); then cultured in a 5% CO2 incubator at 37° C. for 11 days. The medium was exchanged every 3 days.
After 11 days, the culture medium was replaced with filter sterilized Krebs solution (Krebs-Henseleit buffer; pH 7.4, 141 mg/L of MgSO4, […] of KH2PO4, 350 mg/L of KCL, 6,900 mg/L of NaCl, 373 mg/L of CaCl2.2H2O, and 2,100 mg/L of NaHCO3) (KHH buffer) supplemented with 0.1% bovine serum albumin, 10 mM of Hepes, and […] of pyruvate sodium but without glucose to maintain the cells in the 5% CO2 incubator at 37° C. for 2 hours.
Next, each KHH buffer was prepared: only 11 mM glucose was added, or 11 mM of glucose and nepodin (10 μM, 20 μM, or 40 μM). […]
Glucose concentrations in the culture solution at the beginning and after 4 hours from the culture start were determined by using a microplate reader (Beckman Coulter, Inc. AD200) and a glucose determination kit (Glucose CII test Wako (Wako Pure Chemical Industries, Ltd.), Catalog number 439-90901). […]

[6] = system: AMPK (5′ adenosine monophosphate-activated protein kinase); experiment: Phosphorylated AMPK in L6 myotube cells by western blotting; format: cell-based, rat; conditions: nepodin 30 μM, up to 120 minutes
Procedure: The effect of nepodin administration was decided by determining the amount of a phospholylated AMPK (5′ adenosine monophosphate-activated protein kinase), which was important for glucose metabolism in L6 myotube cells, as an activation index.
L6 myoblast cells were suspended in D-MEM (5.5 mM of glucose concentration) supplemented with 10% v/v fetal bovine serum, 100 μg/mL of streptomycin, and 100 U/mL of penicillin G so as to become the cell concentration at 12.5×10^4 cells/well.
L6 myoblast cells were inoculated into a 6 cm diameter dish (FALCON Co., Inc.) (2 mL/well) so as to become the concentration at 5×10^5 cells/well, and cultured in the 5% CO2 incubator at 37° C. for 11 days. The medium was exchanged every 3 days. […]
The negative control samples were prepared by using the cytolytic buffer to be added to the cells cultured with the medium including DMSO, the solvent of nepodin, at the same amount as nepodin. The negative control sample and the samples were separated by using SDS-PAGE according to the conventional method, and were analyzed by using anti-phosphorylated AMPK antibody and anti-AMPK antibody by the western blotting.

[7] = system: db/db diabetes model mouse; experiment: Liver and serum neutral lipid and cholesterol levels in diabetes model mice; format: in vivo
Description: as §1
Livers from the mice of each group were homogenized and total lipid was extracted by using Folch method. Both amounts of neutral lipid and cholesterol in the liver were determined by using LabAssat Tiglyceride (Wako Pure Chemical Industries, Ltd.) and LabAssay Cholesterol (Wako Pure Chemical Industries, Ltd.) Results are shown in FIGS. 7A and 7B.
The serum neutral lipid (triglyceride) level was determined by using LabAssay Triglyceride (Wako Pure Chemical Industries, Ltd.). The serum cholesterol level was determined by using LabAssay Cholesterol (Wako Pure Chemical Industries, Ltd.).

[8] = nepodin administration groups versus diabetes model group with no administration

CC(=O)c1c(C)cc2cccc(O)c2c1O [nepodin, 2-Acetyl-1,8-dihydroxy-3-methyl-napthalene]
serum TBARS value [1]: significantly lower
fasting blood glucose level [2]: significantly lower
Weight gain ([3]; group A, nepodin 2 mg/kg/day): 18.7 ± 1.76 g/5 weeks
Feed intake ([3]; group A, nepodin 2 mg/kg/day for 5 weeks): 5.26 ± 0.61 g/day
Weight gain ([3]; group B, nepodin 10 mg/kg/day): 19.45 ± 2.68 g/5 weeks
Feed intake ([3]; group B, nepodin 10 mg/kg/day for 5 weeks): 5.40 ± 0.50 g/day
average amount of feed intake and body weight gain versus C group ([3]; diabetes model mice, A group and B group (2 or 10 mg/kg/day) versus no nepodin): no significant difference
HOMA-IR [4]: significantly lower
area under the curve (AUC) of blood glucose levels ([5]; B group (10 mg/kg), AUC of C group = 100%, p<0.01): significantly low
increase of the blood glucose level after glucose load ([5]; B group, 10 mg/kg nepodin, sixth week, glucose 2 g/kg i.p. after 16 hours fasting): significantly suppressed
glucose intake by L6 myotube cells (L6 myotube cells): dose-dependently improved
Phosphorylated AMPK in L6 myotube cells [6]: increased
cholesterol level in the liver ([7]; groups A and B versus group C): significantly lower
neutral lipid level in the liver ([7]; groups A and B versus group C): significantly lower
serum cholesterol level [7, 8]: significantly lower
serum neutral lipid (triglyceride) level [7, 8]: significantly lower
